Results reported in patent US12655130B2 (ASSEMBLY BIOSCIENCES, INC., priority 2020, dated 2026).

System: HBV viral load (viral production from HepAD38 cells)
Experiment: Activity of test compounds on viral production from HepAD38 cells (viral load by qPCR of HBV core sequence)
Type: cell-based
Details: Hepatitis B virus, HePAD38, 120 h, viral load lowering, 5 days, qPCR of supernatant, read-out: VL HepAD38 EC50 range
In short: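 EC50 and CC50 come from four-parameter logistic fits: HBV core DNA in supernatant by TaqMan qPCR against DNA standards, normalised to DMSO controls, and cell viability by CellTiter-Glo. Cells were plated at 50,000/well without tetracycline (2% FBS) and exposed to compounds (highest 10 μM) for 5 days, 37 °C.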

| SMILES | EC50 [nM] |
| --- | --- |
| CC(C)n1cc(Cl)c(C2(O)CC3CC(c4ncn(C)c4C(=O)Nc4ccc(F)c(Cl)c4)CC3C2)n1 (stereo not drawn) [Example 154, 4-(5-(4-Chloro-1-isopropyl-1H-pyrazol-3-yl)-5-hydroxyoctahydropentalen-2-yl)-N-(3-chloro-4-fluorophenyl)-1-methyl-1H-imidazole-5-carboxamide] | < 10 |
| Cn1cnc(C2CC3CC(O)(c4cc(NS(C)(=O)=O)nn4C)CC3C2)c1C(=O)Nc1ccc(F)c(Cl)c1 (stereo not drawn) [Example 198, N-(3-Chloro-4-fluorophenyl)-4-(5-hydroxy-5-(1-methyl-3-(methylsulfonamido)-1H-pyrazol-5-yl)octahydropentalen-2-yl)-1-methyl-1H-imidazole-5-carboxamide] | 10 to 50 |
| CN(C)C1CC2CC(c3ncn(C)c3C(=O)Nc3ccc(F)c(Cl)c3)CC2C1 (stereo not drawn) [Example 43, 5-[5-(Dimethylamino)-1,2,3,3a,4,5,6,6a-octahydropentalen-2-yl]-N-(3-chloro-4-fluorophenyl)-3-methyl-4-imidazolecarboxamide] | 10 to 50 |
| Cc1nc(C2CC3CC(O)CC3C2)c(C(=O)Nc2ccc(F)c(Cl)c2)n1C (stereo not drawn) [Example 24, N-(3-Chloro-4-fluorophenyl)-4-(5-hydroxyoctahydropentalen-2-yl)-1,2-dimethyl-1H-imidazole-5-carboxamide] | < 10 |
| CCOC(=O)CC1CC2CC(c3ncn(C)c3C(=O)Nc3ccc(F)c(Cl)c3)CC2C1 (stereo not drawn) [Example 16, Ethyl 2-(5-(5-((3-chloro-4-fluorophenyl)carbamoyl)-1-methyl-1H-imidazol-4-yl)octahydropentalen-2-yl)acetate] | < 10 |
| Cn1cc(C2(O)CC3CC(c4ncn(C)c4C(=O)Nc4ccc(F)c(Cl)c4)CC3C2)cn1 (stereo not drawn) [Example 121, N-(3-chloro-4-fluorophenyl)-4-(5-hydroxy-5-(1-methyl-1H-pyrazol-4-yl)octahydropentalen-2-yl)-1-methyl-1H-imidazole-5-carboxamide] | < 10 |
| CC(N)c1cc(C2(O)CC3CC(c4ncn(C)c4C(=O)Nc4ccc(F)c(Cl)c4)CC3C2)n(C)n1 (stereo not drawn) [Example 112, 4-(5-(3-(1-Aminoethyl)-1-methyl-1H-pyrazol-5-yl)-5-hydroxyoctahydropentalen-2-yl)-N-(3-chloro-4-fluorophenyl)-1-methyl-1H-imidazole-5-carboxamide] | 10 to 50 |
| CC(C)n1nc(NCC(C)(C)O)c(F)c1C1(O)CC2CC(c3ncn(C)c3C(=O)Nc3ccc(F)c(Cl)c3)CC2C1 (stereo not drawn) [Example 216, N-(3-Chloro-4-fluorophenyl)-4-(5-(4-fluoro-3-((2-hydroxy-2-methylpropyl)amino)-1-isopropyl-1H-pyrazol-5-yl)-5-hydroxyoctahydropentalen-2-yl)-1-methyl-1H-imidazole-5-carboxamide] | < 10 |
| Cn1cnc(C2CC3CC(O)(c4cc(C(F)(F)F)n[nH]4)CC3C2)c1C(=O)Nc1ccc(F)c(C#N)c1 (stereo not drawn) [Example 194, N-(3-Cyano-4-fluorophenyl)-4-(5-hydroxy-5-(3-(trifluoromethyl)-1H-pyrazol-5-yl)octahydropentalen-2-yl)-1-methyl-1H-imidazole-5-carboxamide] | 10 to 50 |
| CCn1cc(C2(O)CC3CC(c4ncn(C)c4C(=O)Nc4ccc(F)c(Cl)c4)CC3C2)c(C(F)(F)F)n1 (stereo not drawn) [Example 151, N-(3-Chloro-4-fluorophenyl)-4-(5-(1-ethyl-3-(trifluoromethyl)-1H-pyrazol-4-yl)-5-hydroxyoctahydropentalen-2-yl)-1-methyl-1H-imidazole-5-carboxamide] | < 10 |
| Cn1cc(C2(O)CC3CC(c4ncn(C)c4C(=O)Nc4ccc(F)c(Cl)c4)CC3C2)c(C(O)C(F)(F)F)n1 (stereo not drawn) [Example 191, N-(3-Chloro-4-fluorophenyl)-4-(5-hydroxy-5-(1-methyl-3-(2,2,2-trifluoro-1-hydroxyethyl)-1H-pyrazol-4-yl)octahydropentalen-2-yl)-1-methyl-1H-imidazole-5-carboxamide] | 50 to 500 |
| Cn1cnc(C2CC3CC(O)(c4nn(C)c(C(F)(F)F)c4Br)CC3C2)c1C(=O)Nc1ccc(F)c(Cl)c1 (stereo not drawn) [Example 142, 4-(5-(4-Bromo-1-methyl-5-(trifluoromethyl)-1H-pyrazol-3-yl)-5-hydroxyoctahydropentalen-2-yl)-N-(3-chloro-4-fluorophenyl)-1-methyl-1H-imidazole-5-carboxamide] | < 10 |
| CCNc1nc(C2CC3CC(=O)CC3C2)c(C(=O)Nc2ccc(F)c(Cl)c2)n1C (stereo not drawn) [Example 49, N-(3-chloro-4-fluorophenyl)-2-(ethylamino)-1-methyl-4-(5-oxooctahydropentalen-2-yl)-1H-imidazole-5-carboxamide] | 50 to 500 |
| Cn1cnc(C2CC3CC(O)(c4c(F)c(N)nn4C)CC3C2)c1C(=O)Nc1ccc(F)c(Cl)c1 (stereo not drawn) [Example 52, 4-(5-(3-Amino-4-fluoro-1-methyl-1H-pyrazol-5-yl)-5-hydroxyoctahydropentalen-2-yl)-N-(3-chloro-4-fluorophenyl)-1-methyl-1H-imidazole-5-carboxamide] | < 10 |
| Cn1cnc(C2CC3CC(O)(c4cc(C(C)(C)O)nn4C)CC3C2)c1C(=O)Nc1ccc(F)c(Cl)c1 (stereo not drawn) [Example 59, N-(3-Chloro-4-fluorophenyl)-4-(5-hydroxy-5-(3-(2-hydroxypropan-2-yl)-1-methyl-1H-pyrazol-5-yl)octahydropentalen-2-yl)-1-methyl-1H-imidazole-5-carboxamide] | < 10 |
| CN1CCn2c(nc(C3CC4CC(O)CC4C3)c2C(=O)Nc2ccc(F)c(Cl)c2)C1 (stereo not drawn) [Example 91, N-(3-chloro-4-fluorophenyl)-2-(5-hydroxyoctahydropentalen-2-yl)-7-methyl-5,6,7,8-tetrahydroimidazo[1,2-a]pyrazine-3-carboxamide] | < 10 |
| CNc1nc(C2CC3CC(O)CC3C2)c(C(=O)Nc2ccc(F)c(Cl)c2)n1C (stereo not drawn) [Example 30, N-(3-Chloro-4-fluorophenyl)-4-(5-hydroxyoctahydropentalen-2-yl)-1-methyl-2-(methylamino)-1H-imidazole-5-carboxamide] | < 10 |
| C[C@H](O)c1cc(C2(O)CC3CC(c4ncn(C)c4C(=O)Nc4ccc(F)c(Cl)c4)CC3C2)n(C)n1 (stereo partly drawn) [Example 78, N-(3-Chloro-4-fluorophenyl)-4-(−5-hydroxy-5-(3-((S)-1-hydroxyethyl)-1-methyl-1H-pyrazol-5-yl)octahydropentalen-2-yl)-1-methyl-1H-imidazole-5-carboxamide] | < 10 |
| CC(C)(C)OC(=O)N1CCn2c(nc(C3CC4CC(O)CC4C3)c2C(=O)Nc2ccc(F)c(Cl)c2)C1 (stereo not drawn) [Example 84, tert-Butyl 3-((3-chloro-4-fluorophenyl)carbamoyl)-2-(5-hydroxy-octahydropentalen-2-yl)-5,6-dihydroimidazo[1,2-a]pyrazine-7(8H)-carboxylate] | 50 to 500 |
| Cn1cnc(C2CC3CC(O)(Cn4ccc(Cl)n4)CC3C2)c1C(=O)Nc1ccc(F)c(Cl)c1 (stereo not drawn) [Example 101, 4-(5-((3-Chloro-1H-pyrazol-1-yl)methyl)-5-hydroxyoctahydropentalen-2-yl)-N-(3-chloro-4-fluorophenyl)-1-methyl-1H-imidazole-5-carboxamide] | < 10 |

Same assay, conditions: viral load lowering, 5 days, qPCR of supernatant, read-out: VL HepAD38 EC50 range

| SMILES | EC50 [nM] |
| --- | --- |
| O=C(Nc1ccc(F)c(Cl)c1)c1c(C2CC3CC(O)CC3C2)nc2n1CCC2 (single isomer, unassigned) [Example 33, N-(3-Chloro-4-fluorophenyl)-2-(5-hydroxyoctahydropentalen-2-yl)-6,7-dihydro-5H-pyrrolo[1,2-a]imidazole-3-carboxamide] | < 10 |
